This note sets out measurements from ChEMBL document CHEMBL1142635, “Lupene-type triterpenes from Periploca aphylla” (J Nat Prod, 2000).

The source made the active and inactive calls. The rule behind the calls is not given here.

For one test, the system named is Escherichia coli. The test can be described thus: Antibacterial activity against Escherichia coli at 100 ug after 24 hrs by agar well diffusion method. The test is classed as functional, organism-based. On the technique in general: Agar diffusion results depend on both activity and mobility in agar.
Another test deals with Bacillus cereus. The test is described as follows: Antibacterial activity against Bacillus cereus at 100 ug after 24 hrs by agar well diffusion method. The test is classed as functional, organism-based.
The subject of a further test is Salmonella typhi. The test is described as follows: Antibacterial activity against Salmonella typhi at 100 ug after 24 hrs by agar well diffusion method. Type of test: functional, organism-based. Conditions: Salmonella enterica subsp. enterica serovar Typhi.
The next test relates to Proteus mirabilis. The test is described as follows: Antibacterial activity against Proteus mirabilis at 100 ug after 24 hrs by agar well diffusion method. Type of test: functional, organism-based.
The next test relates to Streptococcus pyogenes. The test can be described thus: Antibacterial activity against Streptococcus pyogenes at 100 ug after 24 hrs by agar well diffusion method. The test is classed as functional, organism-based.
A further test has as its system Staphylococcus aureus. The test is described as follows: Antibacterial activity against […] at 100 ug after 24 hrs by agar well diffusion method. Type of test: functional, organism-based.
A short description of test [1]: Inhibition of alpha-glucosidase 4.

For `C=C(C)[C@@H]1CC[C@]2(C)CC[C@]3(C)[C@H](CC[C@@H]4[C@@]5(C)CC[C@H](OC(=O)CCCCCCCCCCCCCCCCC)C(C)(C)[C@@H]5[C@@H](O)C[C@]43C)[C@@H]12`, the result in the test with Escherichia coli, with Bacillus cereus, in the test on Salmonella typhi, with Proteus mirabilis, with Streptococcus pyogenes and in the test with Staphylococcus aureus was inactive.
Broadly, the IC50 is the concentration needed to halve the response being measured. Low readings indicate higher potency, high ones lower potency. Compound `C=C(C)[C@@H]1CC[C@]2(C)CC[C@]3(C)[C@H](CC[C@@H]4[C@@]5(C)CC[C@H](O)C(C)(C)[C@@H]5[C@@H](O)C[C@]43C)[C@@H]12` returned an IC50 in test [1] of 42.5 µM.
